Measured values taken from patent US7981903B2, “2-[2-{phenylamino}-1H-pyrrolo[2,3-D]pyrimidin-4-yl)amino] benzamide derivatives as IGF-1R inhibitors for the treatment of cancer” (GlaxoSmithKline LLC, priority 2007, dated 2011).
pIC50: −log10 of the molar value.

Key:
human IR (hIR) = target: T1, human IR (hIR) (Homo sapiens, UniProt P06213); experiment: TR-FRET kinase assay of purified hIR; format: biochemical; conditions: activated hIR 0.5 nM, 10 μM ATP, values given as pIC50 category
T1 construct: containing amino acid residues 979-1382 of human IR; made in house; host or cells: Sf9 cells (baculovirus), same process as hIGF1R

ALK = ALK (Homo sapiens, UniProt Q9UM73); experiment: ALK enzyme assay (HTRF); format: biochemical; conditions: 0.25 nM ALK, 15.0 μM ATP, values given as pIC50 category
Method in brief: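 Isolated ALK phosphorylates a biotinylated tyrosine peptide, 120 min at 20° C; anti-phosphotyrosine Eu-cryptate/streptavidin-XL665 HTRF read after 60 min with EDTA-containing detection mix.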

[1] = target: T2, NIH-3T3 cells overexpressing human IR (Homo sapiens, UniProt P06213); experiment: IR cellular autophosphorylation (DELFIA); format: cell-based; conditions: 2 h compound, insulin 3 ug/ml for 15 minutes, IC50 category
T2 construct: expressed in transfected cells; host or cells: NIH-3T3 (mouse fibroblasts)
Description: NIH-3T3 cells overexpressing human IGF-1R or IR were plated in 96-well plates (10,000 cells/well) in culture media containing 10% fetal bovine serum and incubated at 37° C. in a 5% CO2 incubator. Twenty four hours post-plating, cells were treated with different concentrations of test compounds ranging from 30 uM to 1.5 nM. Two hours after compound addition, cells were stimulated with either human IGF-1 (30 ng/ml) or insulin (3 ug/ml) for 15 minutes. Cell lysates are analyzed for phosphorylated receptors using dissociation enhanced lanthanide fluor-immuno assay (DELFIA) with anti-IGF-1R (MAB391, R&D Systems, Minneapolis, Minn.) or anti-IRβ (sc-711, Santa Cruz Biotechnology, Santa Cruz, Calif.) capture antibody and europium-labeled anti-pTyr antibody (Eu-N1 PT66, Perkin Elmer, Waltham, Mass.) for detection. The fluorescence signal for cells treated with compounds was expressed as percent relative to 100% stimulation (IGF-1 or insulin stimulated signal).

[2] = target: T3, NIH-3T3 cells overexpressing human IGF-1R (Homo sapiens, UniProt P08069); experiment: IGF-1R cellular autophosphorylation (DELFIA); format: cell-based
T3 construct: expressed in transfected cells; host or cells: NIH-3T3 (mouse fibroblasts)
Method in brief: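 Receptor autophosphorylation measured by DELFIA, capturing IGF-1R or IRβ and detecting with europium anti-pTyr, reported as percent of IGF-1- or insulin-stimulated signal. Compounds (30 uM to 1.5 nM) added 2 h before ligand, then 15 min stimulation (IGF-1 30 ng/ml or insulin 3 ug/ml).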

human IGF1R (hIGF1R) = target: T4, human IGF1R (hIGF1R) (Homo sapiens, UniProt P08069); experiment: TR-FRET kinase assay of purified hIGF1R; format: biochemical; conditions: activated hIGF1R 0.5 nM, 10 μM ATP, values given as pIC50 category, read-out: IGF-1R pIC50 (converted)
T4 construct: containing amino acid residues 957-1367 of human IGF1R; made in house; host or cells: Sf9 cells (baculovirus)
T4 sequence (P08069 957-1367): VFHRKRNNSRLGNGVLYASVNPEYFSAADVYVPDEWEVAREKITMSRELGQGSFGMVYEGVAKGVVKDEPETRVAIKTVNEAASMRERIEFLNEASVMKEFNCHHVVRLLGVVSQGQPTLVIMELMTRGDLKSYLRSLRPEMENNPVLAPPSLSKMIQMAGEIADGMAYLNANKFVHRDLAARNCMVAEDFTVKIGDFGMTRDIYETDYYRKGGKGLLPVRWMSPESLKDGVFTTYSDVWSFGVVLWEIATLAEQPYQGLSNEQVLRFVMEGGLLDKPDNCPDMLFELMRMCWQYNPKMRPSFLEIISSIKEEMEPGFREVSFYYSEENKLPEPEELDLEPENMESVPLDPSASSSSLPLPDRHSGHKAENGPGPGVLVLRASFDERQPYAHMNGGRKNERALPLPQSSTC

T3 sequence (P08069 31-1367): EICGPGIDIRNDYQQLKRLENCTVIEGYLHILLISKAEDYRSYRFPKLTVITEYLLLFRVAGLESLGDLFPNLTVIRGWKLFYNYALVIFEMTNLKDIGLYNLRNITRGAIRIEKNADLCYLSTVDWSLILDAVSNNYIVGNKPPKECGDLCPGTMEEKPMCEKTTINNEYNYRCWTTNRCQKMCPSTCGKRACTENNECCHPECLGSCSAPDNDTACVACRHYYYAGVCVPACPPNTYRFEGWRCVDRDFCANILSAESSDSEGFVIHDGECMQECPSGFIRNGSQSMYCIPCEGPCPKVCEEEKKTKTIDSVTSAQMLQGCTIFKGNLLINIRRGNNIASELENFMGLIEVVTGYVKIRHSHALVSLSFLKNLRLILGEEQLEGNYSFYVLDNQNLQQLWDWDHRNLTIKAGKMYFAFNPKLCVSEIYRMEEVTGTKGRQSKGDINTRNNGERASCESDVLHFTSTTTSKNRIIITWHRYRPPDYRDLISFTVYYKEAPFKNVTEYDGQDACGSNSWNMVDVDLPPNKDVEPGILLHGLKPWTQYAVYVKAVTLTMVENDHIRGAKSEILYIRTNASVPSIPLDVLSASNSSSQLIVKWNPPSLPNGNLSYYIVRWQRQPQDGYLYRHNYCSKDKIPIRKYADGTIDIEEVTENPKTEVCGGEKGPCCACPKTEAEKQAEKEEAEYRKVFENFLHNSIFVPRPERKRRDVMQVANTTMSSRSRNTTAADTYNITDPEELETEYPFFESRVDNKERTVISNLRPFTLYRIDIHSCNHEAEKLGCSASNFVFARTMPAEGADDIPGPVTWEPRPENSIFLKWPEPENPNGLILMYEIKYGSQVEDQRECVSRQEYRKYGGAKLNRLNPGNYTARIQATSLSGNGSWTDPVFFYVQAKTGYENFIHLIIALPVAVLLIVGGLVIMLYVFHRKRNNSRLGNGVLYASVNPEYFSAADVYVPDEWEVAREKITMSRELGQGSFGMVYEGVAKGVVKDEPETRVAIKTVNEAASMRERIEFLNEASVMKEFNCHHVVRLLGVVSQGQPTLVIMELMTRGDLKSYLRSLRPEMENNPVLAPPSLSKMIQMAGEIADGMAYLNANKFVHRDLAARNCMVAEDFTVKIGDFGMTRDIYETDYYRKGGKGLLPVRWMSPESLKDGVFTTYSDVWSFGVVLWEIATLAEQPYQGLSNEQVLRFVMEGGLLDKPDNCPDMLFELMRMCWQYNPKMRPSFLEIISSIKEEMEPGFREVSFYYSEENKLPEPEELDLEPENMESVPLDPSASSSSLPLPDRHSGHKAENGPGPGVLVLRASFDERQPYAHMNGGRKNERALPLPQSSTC
T2 sequence (P06213 28-1382): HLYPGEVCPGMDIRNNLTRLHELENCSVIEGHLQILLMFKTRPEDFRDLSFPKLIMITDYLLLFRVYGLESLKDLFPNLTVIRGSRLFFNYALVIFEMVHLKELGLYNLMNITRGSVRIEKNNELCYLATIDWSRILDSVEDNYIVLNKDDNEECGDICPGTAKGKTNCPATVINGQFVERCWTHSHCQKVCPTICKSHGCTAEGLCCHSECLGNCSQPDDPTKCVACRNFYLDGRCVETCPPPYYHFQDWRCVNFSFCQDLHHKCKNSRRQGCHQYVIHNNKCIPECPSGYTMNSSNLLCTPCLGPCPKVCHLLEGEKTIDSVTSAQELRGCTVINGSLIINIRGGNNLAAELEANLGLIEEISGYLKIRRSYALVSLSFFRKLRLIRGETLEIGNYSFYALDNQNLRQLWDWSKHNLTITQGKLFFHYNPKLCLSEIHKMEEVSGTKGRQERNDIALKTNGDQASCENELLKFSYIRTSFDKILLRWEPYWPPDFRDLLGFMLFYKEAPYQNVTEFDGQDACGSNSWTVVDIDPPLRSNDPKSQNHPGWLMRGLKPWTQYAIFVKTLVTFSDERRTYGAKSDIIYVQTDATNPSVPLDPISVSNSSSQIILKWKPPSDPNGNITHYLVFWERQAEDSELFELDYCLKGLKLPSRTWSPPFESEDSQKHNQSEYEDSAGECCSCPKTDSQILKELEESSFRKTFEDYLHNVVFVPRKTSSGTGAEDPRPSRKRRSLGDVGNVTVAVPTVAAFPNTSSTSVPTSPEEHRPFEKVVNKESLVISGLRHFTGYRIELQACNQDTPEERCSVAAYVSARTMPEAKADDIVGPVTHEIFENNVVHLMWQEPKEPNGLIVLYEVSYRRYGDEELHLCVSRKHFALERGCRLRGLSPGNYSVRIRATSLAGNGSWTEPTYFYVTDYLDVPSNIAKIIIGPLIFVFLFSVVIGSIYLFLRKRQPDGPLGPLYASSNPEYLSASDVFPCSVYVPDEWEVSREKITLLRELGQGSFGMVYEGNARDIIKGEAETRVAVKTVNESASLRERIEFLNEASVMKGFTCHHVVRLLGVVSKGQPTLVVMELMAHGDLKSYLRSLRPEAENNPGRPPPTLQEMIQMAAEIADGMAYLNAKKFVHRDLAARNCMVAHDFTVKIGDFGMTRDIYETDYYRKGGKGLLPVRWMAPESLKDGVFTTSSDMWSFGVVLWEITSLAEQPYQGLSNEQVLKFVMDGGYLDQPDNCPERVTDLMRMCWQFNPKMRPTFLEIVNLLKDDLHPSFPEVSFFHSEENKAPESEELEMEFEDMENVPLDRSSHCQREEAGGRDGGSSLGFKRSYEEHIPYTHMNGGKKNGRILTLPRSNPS
T1 sequence (P06213 979-1382): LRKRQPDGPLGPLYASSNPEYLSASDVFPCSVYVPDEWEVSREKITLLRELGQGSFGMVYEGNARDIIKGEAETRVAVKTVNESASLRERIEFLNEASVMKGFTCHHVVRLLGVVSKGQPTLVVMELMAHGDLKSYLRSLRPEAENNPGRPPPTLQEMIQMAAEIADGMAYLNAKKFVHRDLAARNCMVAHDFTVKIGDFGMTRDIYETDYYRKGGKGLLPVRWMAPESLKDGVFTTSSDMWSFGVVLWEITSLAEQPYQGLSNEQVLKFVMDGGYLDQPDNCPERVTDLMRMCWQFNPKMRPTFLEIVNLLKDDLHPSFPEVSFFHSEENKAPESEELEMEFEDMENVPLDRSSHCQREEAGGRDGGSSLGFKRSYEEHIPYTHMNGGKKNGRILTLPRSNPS
Sequence of ALK (Q9UM73 19-1620): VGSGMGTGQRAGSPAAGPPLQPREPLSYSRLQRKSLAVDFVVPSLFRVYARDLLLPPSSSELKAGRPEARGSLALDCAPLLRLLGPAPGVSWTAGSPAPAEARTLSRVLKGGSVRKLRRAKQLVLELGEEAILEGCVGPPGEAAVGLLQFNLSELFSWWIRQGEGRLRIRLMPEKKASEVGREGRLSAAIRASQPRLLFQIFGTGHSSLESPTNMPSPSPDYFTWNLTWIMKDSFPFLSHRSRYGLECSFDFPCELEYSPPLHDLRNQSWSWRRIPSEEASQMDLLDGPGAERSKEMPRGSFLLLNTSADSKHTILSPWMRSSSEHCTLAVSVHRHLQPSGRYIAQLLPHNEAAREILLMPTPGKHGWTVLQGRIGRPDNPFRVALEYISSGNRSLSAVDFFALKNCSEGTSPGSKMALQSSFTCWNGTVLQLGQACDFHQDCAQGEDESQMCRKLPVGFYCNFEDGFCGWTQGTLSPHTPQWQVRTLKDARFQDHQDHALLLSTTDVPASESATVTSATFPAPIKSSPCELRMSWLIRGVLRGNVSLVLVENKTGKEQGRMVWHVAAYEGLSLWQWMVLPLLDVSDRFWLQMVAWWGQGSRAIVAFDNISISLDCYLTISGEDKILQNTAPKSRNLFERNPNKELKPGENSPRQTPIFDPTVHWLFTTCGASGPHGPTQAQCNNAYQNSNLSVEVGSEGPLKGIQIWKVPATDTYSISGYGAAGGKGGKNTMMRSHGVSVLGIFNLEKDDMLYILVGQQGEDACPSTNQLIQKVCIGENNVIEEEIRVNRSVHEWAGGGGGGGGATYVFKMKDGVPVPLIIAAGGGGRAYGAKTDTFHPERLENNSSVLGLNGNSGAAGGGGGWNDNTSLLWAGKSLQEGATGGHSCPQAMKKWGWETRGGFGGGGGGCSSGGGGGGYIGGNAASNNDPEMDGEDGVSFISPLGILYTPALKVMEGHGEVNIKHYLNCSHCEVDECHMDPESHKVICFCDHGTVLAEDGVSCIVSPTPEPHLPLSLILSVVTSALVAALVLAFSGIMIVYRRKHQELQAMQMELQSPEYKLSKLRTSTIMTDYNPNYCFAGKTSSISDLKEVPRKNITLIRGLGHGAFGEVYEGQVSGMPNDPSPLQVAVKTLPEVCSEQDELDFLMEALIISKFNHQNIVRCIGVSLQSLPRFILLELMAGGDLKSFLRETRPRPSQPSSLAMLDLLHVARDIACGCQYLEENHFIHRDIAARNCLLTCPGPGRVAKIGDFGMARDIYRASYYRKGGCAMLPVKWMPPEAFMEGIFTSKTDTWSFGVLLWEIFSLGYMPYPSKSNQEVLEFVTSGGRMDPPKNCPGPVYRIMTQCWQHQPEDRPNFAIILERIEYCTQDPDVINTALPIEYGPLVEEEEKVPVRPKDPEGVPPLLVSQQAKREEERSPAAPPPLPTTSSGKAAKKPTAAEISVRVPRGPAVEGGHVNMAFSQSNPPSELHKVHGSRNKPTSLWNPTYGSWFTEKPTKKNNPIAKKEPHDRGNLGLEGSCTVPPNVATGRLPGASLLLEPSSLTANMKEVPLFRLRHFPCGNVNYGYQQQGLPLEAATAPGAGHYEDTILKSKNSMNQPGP

Compound	pIC50 (human IR (hIR))	pIC50 (ALK)	pIC50 [1]	pIC50 [2]	IC50 (human IGF1R (hIGF1R)) [nM]
Cc1ccc(NC(=O)CN(C)C)cc1Nc1nc(Nc2ccccc2C(=O)NCc2ccc(F)cc2)c2cc[nH]c2n1 [Example 27, 2-{[2-({5-[(N,N-dimethylglycyl)amino]-2-methylphenyl}amino)-1H-pyrrolo[2,3-d]pyrimidin-4-yl]amino}-N-[(4-fluorophenyl)methyl]benzamide]	8.40 to 8.90	6.70 to 8.30	< 6.30	< 6.30	5.01 to 200
CCCN1CCC=C(c2ccc(Nc3nc(Nc4ccccc4C(=O)NC)c4cc[nH]c4n3)c(OC)c2)C1 [Example 23, N-methyl-2-[(2-{[2-(methyloxy)-4-(1-propyl-1,2,5,6-tetrahydro-3-pyridinyl)phenyl]amino}-1H-pyrrolo[2,3-d]pyrimidin-4-yl)amino]benzamide]	9.00 to 9.60	9.00 to 9.60	6.30 to 7.00	6.30 to 7.00	1.26 to 3.98
CCCN1CCC=C(c2ccc(Nc3nc(Nc4ccc(Cl)cc4C(N)=O)c4cc[nH]c4n3)c(OC)c2)C1 [Example 108, 5-chloro-2-[(2-{[2-(methyloxy)-4-(1-propyl-1,2,5,6-tetrahydro-3-pyridinyl)phenyl]amino}-1H-pyrrolo[2,3-d]pyrimidin-4-yl)amino]benzamide]	9.00 to 9.60	9.00 to 9.60	6.30 to 7.00	6.30 to 7.00	0.251 to 1
CNC(=O)c1c(F)cc(Cl)cc1Nc1nc(Nc2cc3c(cc2OC)CCN3C(=O)CN(C)C)nc2[nH]ccc12 [Example 120, 4-chloro-2-[(2-{[1-(N,N-dimethylglycyl)-5-(methyloxy)-2,3-dihydro-1H-indol-6-yl]amino}-1H-pyrrolo[2,3-d]pyrimidin-4-yl)amino]-6-fluoro-N-methylbenzamide]	9.00 to 9.60	9.00 to 9.60	6.30 to 7.00	6.30 to 7.00	0.251 to 1
CCCN1CCCC(c2ccc(Nc3nc(Nc4cccc(OC)c4C(N)=O)c4cc[nH]c4n3)c(OC)c2)C1 (centres unmarked) [Example 36, 2-(methyloxy)-6-[(2-{[2-(methyloxy)-4-(1-propyl-3-piperidinyl)phenyl]amino}-1H-pyrrolo[2,3-d]pyrimidin-4-yl)amino]benzamide]	8.40 to 8.90	8.40 to 8.90	6.30 to 7.00	6.30 to 7.00	1.26 to 3.98
COc1cc(N2CCN(CC(C)C)CC2)ccc1Nc1nc(Nc2cc(F)ccc2C(N)=O)c2cc[nH]c2n1 [Example 80, 4-fluoro-2-{[2-({2-(methyloxy)-4-[4-(2-methylpropyl)-1-piperazinyl]phenyl}amino)-1H-pyrrolo[2,3-d]pyrimidin-4-yl]amino}benzamide]	9.00 to 9.60	9.00 to 9.60	6.30 to 7.00	> 7.00	1.26 to 3.98
CCCN1CCC=C(c2ccc(Nc3nc(Nc4cc5ccccc5cc4C(N)=O)c4cc[nH]c4n3)c(OC)c2)C1 [Example 29, 3-[(2-{[2-(methyloxy)-4-(1-propyl-1,2,5,6-tetrahydro-3-pyridinyl)phenyl]amino}-1H-pyrrolo[2,3-d]pyrimidin-4-yl)amino]-2-naphthalenecarboxamide]	8.40 to 8.90	8.40 to 8.90	6.30 to 7.00	6.30 to 7.00	1.26 to 3.98
CCCN1CCC=C(c2ccc(Nc3nc(Nc4cc(Cl)ccc4C(N)=O)c4cc[nH]c4n3)c(OC)c2)C1 [Example 110, 4-chloro-2-[(2-{[2-(methyloxy)-4-(1-propyl-1,2,5,6-tetrahydro-3-pyridinyl)phenyl]amino}-1H-pyrrolo[2,3-d]pyrimidin-4-yl)amino]benzamide]	8.40 to 8.90	9.00 to 9.60	< 6.30	6.30 to 7.00	1.26 to 3.98
Cc1ccc(NC(=O)CN2CCCC2)cc1Nc1nc(Nc2ccccc2C(N)=O)c2cc[nH]c2n1 [Example 14, 2-{[2-({2-methyl-5-[(1-pyrrolidinylacetyl)amino]phenyl}amino)-1H-pyrrolo[2,3-d]pyrimidin-4-yl]amino}benzamide]	9.00 to 9.60	8.40 to 8.90	6.30 to 7.00	6.30 to 7.00	1.26 to 3.98
CCCN1CCC=C(c2ccc(Nc3nc(Nc4cccc(F)c4C(N)=O)c4cc[nH]c4n3)c(OC)c2)C1 [Example 41, 2-fluoro-6-[(2-{[2-(methyloxy)-4-(1-propyl-1,2,5,6-tetrahydro-3-pyridinyl)phenyl]amino}-1H-pyrrolo[2,3-d]pyrimidin-4-yl)amino]benzamide]	8.40 to 8.90	9.00 to 9.60	6.30 to 7.00	6.30 to 7.00	1.26 to 3.98
COc1cc(N2CCOCC2)ccc1Nc1nc(Nc2ccccc2C(N)=O)c2cc[nH]c2n1 [Example 12, 2-[(2-{[2-(methyloxy)-4-(4-morpholinyl)phenyl]amino}-1H-pyrrolo[2,3-d]pyrimidin-4-yl)amino]benzamide]	9.00 to 9.60	9.00 to 9.60	6.30 to 7.00	6.30 to 7.00	1.26 to 3.98

Further lines, results first:

pIC50 (human IR (hIR))	pIC50 (ALK)	pIC50 [1]	pIC50 [2]	IC50 (human IGF1R (hIGF1R)) [nM]	Compound
9.00 to 9.60	9.00 to 9.60	6.30 to 7.00	> 7.00	0.251 to 1	CNC(=O)c1c(F)cccc1Nc1nc(Nc2cc(NC(=O)CN(C)C)c(C)cc2OC)nc2[nH]ccc12 [Example 256, 2-[(2-{[5-[(N,N-dimethylglycyl)amino]-4-methyl-2-(methyloxy)phenyl]amino}-1H-pyrrolo[2,3-d]pyrimidin-4-yl)amino]-6-fluoro-N-methylbenzamide]
9.00 to 9.60	8.40 to 8.90	> 7.00	> 7.00	0.251 to 1	COc1cc2c(cc1Nc1nc(Nc3cccc(F)c3C(N)=O)c3cc[nH]c3n1)N(C(=O)CN(C)C)[C@@H](C)C2 [Example 249, 2-[(2-{[(2S)-1-(N,N-dimethylglycyl)-2-methyl-5-(methyloxy)-2,3-dihydro-1H-indol-6-yl]amino}-1H-pyrrolo[2,3-d]pyrimidin-4-yl)amino]-6-fluorobenzamide]
6.80 to 8.30	6.70 to 8.30	< 6.30	< 6.30	5.01 to 200	COc1cc(C)c(N(C)C(=O)CN(C)C)cc1Nc1nc(Nc2cccc(F)c2C(N)=O)c2cc[nH]c2n1 [Example 255, 2-[(2-{[5-[(N,N-dimethylglycyl)(methyl)amino]-4-methyl-2-(methyloxy)phenyl]amino}-1H-pyrrolo[2,3-d]pyrimidin-4-yl)amino]-6-fluorobenzamide]
6.80 to 8.30	6.70 to 8.30	6.30 to 7.00	6.30 to 7.00	5.01 to 200	COc1cc2c(cc1Nc1nc(Nc3cccc(F)c3C(N)=O)c3cc[nH]c3n1)N(C(=O)CN(C)C)[C@H](C)C2 [Example 248, 2-[(2-{[(2R)-1-(N,N-dimethylglycyl)-2-methyl-5-(methyloxy)-2,3-dihydro-1H-indol-6-yl]amino}-1H-pyrrolo[2,3-d]pyrimidin-4-yl)amino]-6-fluorobenzamide]
9.00 to 9.60	6.70 to 8.30	6.30 to 7.00	6.30 to 7.00	1.26 to 3.98	Cc1ccc(NC(=O)CN(C)C)cc1Nc1nc(Nc2ccc(F)cc2C(N)=O)c2cc[nH]c2n1 [Example 62, 2-{[2-({5-[(N,N-dimethylglycyl)amino]-2-methylphenyl}amino)-1H-pyrrolo[2,3-d]pyrimidin-4-yl]amino}-5-fluorobenzamide]
8.40 to 8.90	9.00 to 9.60	> 7.00	> 7.00	1.26 to 3.98	CNC(=O)c1c(F)cccc1Nc1nc(Nc2cc3c(cc2OC)C[C@H](C)N3C(=O)CN(C)C)nc2[nH]ccc12 [Example 251, 2-[(2-{[(2S)-1-(N,N-dimethylglycyl)-2-methyl-5-(methyloxy)-2,3-dihydro-1H-indol-6-yl]amino}-1H-pyrrolo[2,3-d]pyrimidin-4-yl)amino]-6-fluoro-N-methylbenzamide]
6.80 to 8.30	6.70 to 8.30	< 6.30	< 6.30		CNC(=O)c1c(F)cccc1Nc1nc(Nc2cc(N(C)C(=O)CN(C)C)c(C)cc2OC)nc2[nH]ccc12 [Example 254, 2-[(2-{[5-[(N,N-dimethylglycyl)(methyl)amino]-4-methyl-2-(methyloxy)phenyl]amino}-1H-pyrrolo[2,3-d]pyrimidin-4-yl)amino]-6-fluoro-N-methylbenzamide]
